{"source": "paper PMC8037910", "about": "“Effect of Chronic Administration of 5-(3-chlorophenyl)-4-Hexyl-2,4 -Dihydro-3H-1,2,4-Triazole-3-Thione (TP-315)—A New Anticonvulsant Drug Candidate—On Living Organisms” (International Journal of Molecular Sciences, 2021)", "key": {"[1]": {"tested_on": "mice", "parameters": "method as in PMID 23291122, PMID 25226229, PMID 25090118; unit not given here", "conditions": "chimney test, cited from earlier work"}, "[2]": {"tested_on": "6 Hz psychomotor seizure model", "parameters": "method as in PMID 32253957", "conditions": "mice, cited from earlier work"}, "[3]": {"test": "PAMPA BBB (parallel artificial membrane permeability assay)", "assay_type": "in vitro ADME", "conditions": "pH 7.4, 37 °C, donor 20 µg/mL, read-out: Permeability Coefficients (Pe × 10−6) ± SD", "experimental": "BBB permeability of the compounds was investigated by using a PAMPA method (parallel artificial membrane permeability assay). The PAMPA system consisted of a 96-well microfilter plate and a 96-well filter plate and was divided into two chambers: a donor at the bottom and an acceptor at the top, separated by a 120-μm-thick microfilter disc coated with BBB lipid solution (Pion, Inc.). The solutions of each compound were prepared in dimethyl sulfoxide (DMSO) at 4 mg/mL concentration and then diluted with Prisma buffer (pH = 7.4) to obtain the donor drug solution with the final nominal concentration of 20 µg/mL. The donor solutions were placed on the donor plate. Acceptor plate contained Brain Sink Buffer (BSB). The plates were put together and incubated at 37 °C for 180 min in a humidity-saturated atmosphere. The concentrations of the compounds were determined with a UV-reader (Multiskan GO, Thermo Scientific) at 254 nm in the donor and acceptor compartments.\nThe permeability values (Pe) were calculated by using the following equation:(1) −ln(1−CA/Cequilibrium)/S×(1/VD+1/VA)×t where VD: donor volume, VA: acceptor volume, Cequilibrium: equilibrium concentration Cequilibrium=CD×VD+ CA×VA/VD+VA, CD: donor concentration, CA: acceptor concentration, S: membrane area, and t: incubation time (in seconds). High BBB permeation (CNS+) was expected for compounds with Pe > 5.19, whereas low BBB permeation (CNS-) was expected for compounds with Pe < 2.07 [21]."}, "[4]": {"tested_on": "maximal electroshock-induced seizure (MES)", "parameters": "method as in PMID 23291122, PMID 25226229, PMID 25090118", "conditions": "mice, cited from earlier work"}, "[5]": {"target": "batrachotoxin-binding site on voltage-gated sodium channels", "parameters": "method as in PMID 25226229, PMID 30594731, PMID 28824309", "conditions": "read-out: Affinity towards Batrachotoxin-Binding Site on Sodium Channels IC50 ± SEM; cited from earlier work"}, "[6]": {"tested_on": "mice", "parameters": "method as in PMID 23291122, PMID 25226229, PMID 25090118", "conditions": "rotarod test (†), the values are: TD50, cited from earlier work"}}, "note": "Read-outs that look alike come from different tables or passages of the source.", "data": [{"molecule": "Cc1ccc(-n2c(-c3cccc(Cl)c3)n[nH]c2=S)cc1", "note": "[TP-10, 5-(3-Chlorophenyl)-4-(4-methylphenyl)-2,4-dihydro-3H-1,2,4-triazole-3-thione]", "values": [{"measurement": "Neurotoxicity in Chimney or Rotarod (†) Tests in Mice", "setting": "[1]; pretreatment time 15 min", "value": "338.1 ± 12.0"}, {"measurement": "Neurotoxicity in Chimney or Rotarod (†) Tests in Mice", "setting": "[1]; pretreatment time 30 min", "value": "338.1 ± 14.7"}, {"measurement": "Neurotoxicity in Chimney or Rotarod (†) Tests in Mice", "setting": "[1]; pretreatment time 60 min", "value": "333.4 ± 18.6"}, {"measurement": "Neurotoxicity in Chimney or Rotarod (†) Tests in Mice", "setting": "[1]; pretreatment time 120 min", "value": "395.1 ± 25.2"}, {"measurement": "Anticonvulsant Activity in 6 Hz Test ED50 ± SEM", "setting": "[2]; pretreatment time 15 min", "value": "62.6 ± 13.2", "unit": "mg/kg"}, {"measurement": "Anticonvulsant Activity in 6 Hz Test ED50 ± SEM", "setting": "[2]; pretreatment time 30 min", "value": "61.1 ± 9.7", "unit": "mg/kg"}, {"measurement": "Anticonvulsant Activity in 6 Hz Test ED50 ± SEM", "setting": "[2]; pretreatment time 60 min", "value": "169.7 ± 18.5", "unit": "mg/kg"}, {"measurement": "Anticonvulsant Activity in 6 Hz Test ED50 ± SEM", "setting": "[2]; pretreatment time 120 min", "value": "167.6 ± 17.4", "unit": "mg/kg"}, {"measurement": "Papp at 180 min, 20 µg/mL", "setting": "[3]", "value": "40.2 ± 5.1", "unit": "×10⁻⁶ cm/s"}, {"measurement": "Anticonvulsant Activity in MES Test ED50 ± S.E.", "setting": "[4]; pretreatment time 15 min", "value": "57.0 ± 9.4", "unit": "mg/kg"}, {"measurement": "Anticonvulsant Activity in MES Test ED50 ± S.E.", "setting": "[4]; pretreatment time 30 min", "value": "74.5 ± 8.1", "unit": "mg/kg"}, {"measurement": "Anticonvulsant Activity in MES Test ED50 ± S.E.", "setting": "[4]; pretreatment time 60 min", "value": "187.1 ± 18.8", "unit": "mg/kg"}, {"measurement": "Anticonvulsant Activity in MES Test ED50 ± S.E.", "setting": "[4]; pretreatment time 120 min", "value": "281.4 ± 13.6", "unit": "mg/kg"}]}, {"molecule": "CCCCCCn1c(Cc2cccc(Cl)c2)n[nH]c1=S", "note": "[TP-427, 5-(3-Chlorobenzyl)-4-hexyl-2,4-dihydro-3H-1,2,4-triazole-3-thione]", "values": [{"measurement": "IC50", "setting": "[5]", "value": "6.17 ± 1.43", "unit": "µM"}, {"measurement": "Neurotoxicity in Chimney or Rotarod (†) Tests in Mice", "setting": "[1]; pretreatment time 15 min", "value": ">1000"}, {"measurement": "Neurotoxicity in Chimney or Rotarod (†) Tests in Mice", "setting": "[1]; pretreatment time 30 min", "value": ">1000"}, {"measurement": "Neurotoxicity in Chimney or Rotarod (†) Tests in Mice", "setting": "[1]; pretreatment time 60 min", "value": "540.7 ± 20.9"}, {"measurement": "Neurotoxicity in Chimney or Rotarod (†) Tests in Mice", "setting": "[1]; pretreatment time 120 min", "value": "548.5 ± 21.4"}, {"measurement": "Anticonvulsant Activity in 6 Hz Test ED50 ± SEM", "setting": "[2]; pretreatment time 15 min", "value": "40.9 ± 6.4", "unit": "mg/kg"}, {"measurement": "Anticonvulsant Activity in 6 Hz Test ED50 ± SEM", "setting": "[2]; pretreatment time 30 min", "value": "46.6 ± 8.2", "unit": "mg/kg"}, {"measurement": "Anticonvulsant Activity in 6 Hz Test ED50 ± SEM", "setting": "[2]; pretreatment time 60 min", "value": "51.6 ± 6.9", "unit": "mg/kg"}, {"measurement": "Anticonvulsant Activity in 6 Hz Test ED50 ± SEM", "setting": "[2]; pretreatment time 120 min", "value": "64.9 ± 5.6", "unit": "mg/kg"}, {"measurement": "Papp at 180 min, 20 µg/mL", "setting": "[3]", "value": "477 ± 39.6", "unit": "×10⁻⁶ cm/s"}, {"measurement": "Anticonvulsant Activity in MES Test ED50 ± S.E.", "setting": "[4]; pretreatment time 15 min", "value": "72.1 ± 7.0", "unit": "mg/kg"}, {"measurement": "Anticonvulsant Activity in MES Test ED50 ± S.E.", "setting": "[4]; pretreatment time 30 min", "value": "74.5 ± 8.1", "unit": "mg/kg"}, {"measurement": "Anticonvulsant Activity in MES Test ED50 ± S.E.", "setting": "[4]; pretreatment time 60 min", "value": "83.6 ± 3.8", "unit": "mg/kg"}, {"measurement": "Anticonvulsant Activity in MES Test ED50 ± S.E.", "setting": "[4]; pretreatment time 120 min", "value": "97.9 ± 10.9", "unit": "mg/kg"}]}, {"molecule": "CC(C)Cn1c(Cc2cccc(Cl)c2)n[nH]c1=S", "note": "[TPR-22, 5-(3-Chlorobenzyl)-4-isobutyl-2,4-dihydro-3H-1,2,4-triazole-3-thione]", "values": [{"measurement": "IC50", "setting": "[5]", "value": "18.9 ± 1.2", "unit": "µM"}, {"measurement": "Papp at 180 min, 20 µg/mL", "setting": "[3]", "value": "34.4 ± 8.3", "unit": "×10⁻⁶ cm/s"}, {"measurement": "Anticonvulsant Activity in MES Test ED50 ± S.E.", "setting": "[4]; pretreatment time 15 min", "value": "130.4 ± 17.6", "unit": "mg/kg"}, {"measurement": "Anticonvulsant Activity in MES Test ED50 ± S.E.", "setting": "[4]; pretreatment time 30 min", "value": "130.4 ± 17.6", "unit": "mg/kg"}, {"measurement": "Anticonvulsant Activity in MES Test ED50 ± S.E.", "setting": "[4]; pretreatment time 60 min", "value": "159.9 ± 21.9", "unit": "mg/kg"}, {"measurement": "Anticonvulsant Activity in MES Test ED50 ± S.E.", "setting": "[4]; pretreatment time 120 min", "value": "195.7 ± 21.5", "unit": "mg/kg"}, {"measurement": "Neurotoxicity in Chimney or Rotarod (†) Tests in Mice", "setting": "[6]; pretreatment time 15 min", "value": "306 ± 19.8", "unit": "mg/kg"}, {"measurement": "Neurotoxicity in Chimney or Rotarod (†) Tests in Mice", "setting": "[6]; pretreatment time 30 min", "value": "314 ± 22", "unit": "mg/kg"}, {"measurement": "Neurotoxicity in Chimney or Rotarod (†) Tests in Mice", "setting": "[6]; pretreatment time 60 min", "value": "326 ± 23.1", "unit": "mg/kg"}, {"measurement": "Neurotoxicity in Chimney or Rotarod (†) Tests in Mice", "setting": "[6]; pretreatment time 120 min", "value": "330 ± 24.2", "unit": "mg/kg"}]}, {"molecule": "CCCC(CCC)C(=O)O", "note": "[Valproic acid, reference compound]", "values": [{"measurement": "Papp at 180 min, 20 µg/mL", "setting": "[3]", "value": "15.4 ± 4.71", "unit": "×10⁻⁶ cm/s"}]}]}
